Entries after “also recorded” stand apart in the source; their conditions may differ. Bridge positions count the residues as written; N and C are the ends. Square brackets hold non-standard residues; d marks the D form. Ends that are not written are not given here. Peptide text beside a SMILES is read from it. S5 = C=CCCC[C@](C)(N)C(=O)O; Sar = CNCC(=O)O
Tests used:
[1] = ABO incompatibility hemolytic assay of complement activity (CH50-type); assay type: cell-based, human; conditions: peptide 0.8 mg/ml (~0.5 mM); read-out: decrease of ABO hemolysis compared to PA-I8Sar
Method: FIG. 1A-1B show PIC1 peptides' inhibition of complement activation in an ABO incompatibility assay. […] Inhibition of ABO incompatibility hemolysis in a CH50-type assay. Peptides are at a final concentration of 0.5 mM. Values are represented as a percent of the positive control, which consists of human O sera and AB red blood cells in GVBS^++ buffer. Data are the means of n=3 independent experiments±SEM.
For hemolytic complement assays, human red blood cells (RBCs) from type AB donors were purified, washed, and standardized to 1.0×10^9 cells/ml, as previously described. Human sera from type O donors at a 15% final concentration was combined with 0.5 mM of the peptides and the volume was brought up to 0.2 ml with GVBS^++ and 5.0×10^7 RBCs. The samples were incubated for 1 hour at 37° C. and then spun at 3,000 rpm for 5 minutes and the supernatant was collected and read at 412 nm. Values are represented as a percent of the positive control, which consists of human O sera and AB red blood cells in GVBS^++ buffer.
To assess the extent to which the peptide variants inhibit antibody-initiated complement activation, an ABO incompatibility ex vivo assay was utilized in which purified erythrocytes from a ‘type AB+’ donor are incubated with sera from a ‘type O’ subject containing anti-A and anti-B antibodies. Peptides were tested at a concentration of 0.8 mg/ml (˜0.5 mM). […] D-amino acid variants PA-0127 and PA-0133 decreased ABO hemolysis by 20% (P value=0.083) and 25% (P value=0.076), respectively. […]

human neutrophils = experiment: NETosis assay (free DNA, PicoGreen); assay type: cell-based; conditions: peptide 2 mM; neutrophils stimulated with PMA and H2O2
Method: Free DNA as a marker for NET formation was measured by PicoGreen as previously described. Briefly, 2.0×10^6 human neutrophils in 96-well plates were stimulated with 12 nM PMA and 0.05% H2O2 in RPMI with or without the indicated peptide variants (2 mM) for 2.5 hr in a 37° C. humified incubator supplemented with 5% CO2, allowing NETosis to occur. Neutrophils in RPMI alone served as a negative control. Fifty units of […] (Fisher) were added to each well to allow for digestion of released extracellular DNA for 10 min at 37° C. The preparation was then aliquoted into an adjacent well and mixed 1:1 with prepared PICO green reagent (Fisher). The fluorescence was then quantified on a BioTek microplate reader at excitation 485 nm/emission 528 nm.

complement activity = experiment: Hemolytic assay of plasma after IV infusion into rats; assay type: in vivo, rat; conditions: IV in Wistar rats; early time points at the highest dose
Method: Male Wistar rats with indwelling jugular catheters were administered PA-0117, -0127, -0130, and -0133 with groups of three animals receiving 20, 200 and 400 mg/kg of the compound as a single, bolus, IV infusion. A control group of rats received an infusion of saline IV. At various time points after infusion (0.5, 2, 5, 20, 60, 120, 240, 480, 1440 minute) an aliquot of blood was drawn and plasma isolated and frozen at −70° C. pending analysis. Animals were sacrificed after the terminal blood draw and a gross necropsy performed.
PA-0117 could not be analyzed as no functional complement activity was obtained from the plasma samples. […] PA-0117 was analyzed in a C1q target acquisition assay (C1q binding assay) as described in Example 1 (FIG. 9). […] PA-0127 and -0130 levels were determined by coating the plate with the plasma samples and directly detecting the peptides by rabbit antibody raised against PA-0020 (peptide sequence […]; SEQ ID NO: 57) (FIGS. 10B and 11B). […] PA-0133 could not be detected by the available antibodies.

C1q = molecular target: T1, C1q (Homo sapiens, UniProt P02745+P02746+P02747); experiment: C1q binding ELISA-type assay; conditions: half-maximal binding from binding curves
T1 construct: purchased Complement Technology (Tyler, Tex.)
Method: The C1q binding assay was performed as previously described. Briefly, an Immunlon-2 HB ELISA plate was coated with 1 μg/ml C1q in bicarbonate buffer overnight at 4° C. The plates were washed with PBS-T (phosphate buffered saline+0.1% Tween) and then blocked with 1% gelatin/PBS for 2 hours at room temperature. After washing, the plates were incubated with the peptides starting at 2.5 mg/ml and then serially diluted in 1% gelatin/PBS for 1 hour at room temperature followed by washing. Plates were then probed with rabbit antibody raised against the lead peptide […] (SEQ ID NO: 2) that lacked PEGylation at 1:1000 in 1% gelatin/PBS for 1 hour at room temperature followed by a goat anti-rabbit HRP (Sigma Aldrich, St Louis, Mo.) at 1:1,000 in 1% gelatin/PBS for 1 hour at room temperature with a washing step in between. After addition of TMB substrate solution to the wells, the reaction was stopped using 1N H2SO4, and the plate read on a BioTek Synergy HT plate reader at 450 nm.
The astrovirus capsid protein and the PIC1 molecules derived from it inhibit classical complement pathway activation by binding to the pattern recognition molecule C1q. The inventors next tested peptide variant binding to C1q in an ELISA-type assay in which C1q is used as the capture substrate and bound peptide detected with a rabbit polyclonal antibody against the peptide portion of PA-dPEG24 ([…]-d24; SEQ ID NO: 3). Binding curves were derived for the stapled and D-amino acid peptides based on the PA-I8Sar and PA-C9Sar (FIG. 6A-6D) backbone, from which half-maximal binding concentrations were calculated (FIGS. 2A and B, respectively). […] For the D-amino acid variants, all peptides in which C1q binding was detected, had variable but increased binding to C1q compared to PA-I8Sar (FIG. 2A). For the peptides based on the PA-C9Sar backbone, with the exception of PA-0148, C1q was bound to the same degree or greater than the parent peptide (FIG. 2B).
The inventors also assessed the ability of RLS-0127* and RLS-0133* to inhibit MPO activity as determined by inhibition of oxidation of TMB in a plate-based assay. […] Additionally, the inventors assessed the ability of RLS-0127* and RLS-0133* to bind C1q in a plate-based assay in which C1q is coated on the plate and increasing amounts of the peptides are added, followed by primary antibody to the peptides and secondary antibody conjugated to HRP. The plate was then incubated with TMB to give a […] signal that is detected at a wavelength of 450 nm in a plate reader.

T1 sequence (P02745 23-245): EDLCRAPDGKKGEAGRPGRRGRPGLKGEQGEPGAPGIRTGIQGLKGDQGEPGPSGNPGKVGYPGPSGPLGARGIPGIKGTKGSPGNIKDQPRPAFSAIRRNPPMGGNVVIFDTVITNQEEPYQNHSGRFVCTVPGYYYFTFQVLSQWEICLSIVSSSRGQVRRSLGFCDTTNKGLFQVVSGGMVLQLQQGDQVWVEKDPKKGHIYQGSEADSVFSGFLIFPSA
T1 sequence (P02746 28-253): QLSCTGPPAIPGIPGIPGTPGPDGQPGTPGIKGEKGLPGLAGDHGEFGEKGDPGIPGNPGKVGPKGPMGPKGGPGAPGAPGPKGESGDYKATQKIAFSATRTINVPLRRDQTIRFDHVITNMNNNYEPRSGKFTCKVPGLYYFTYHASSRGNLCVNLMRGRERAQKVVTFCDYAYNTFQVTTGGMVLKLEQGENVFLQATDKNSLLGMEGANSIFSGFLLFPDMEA
T1 sequence (P02747 29-245): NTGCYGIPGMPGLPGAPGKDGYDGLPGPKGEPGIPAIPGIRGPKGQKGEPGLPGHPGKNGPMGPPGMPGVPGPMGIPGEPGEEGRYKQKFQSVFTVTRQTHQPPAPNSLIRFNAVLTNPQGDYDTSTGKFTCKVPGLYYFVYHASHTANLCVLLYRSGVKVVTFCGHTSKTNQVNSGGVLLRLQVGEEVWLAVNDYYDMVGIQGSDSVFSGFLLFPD

Molecule | decrease in ABO hemolysis compared to reference peptide [1] | reduction of free DNA (marker of NETosis) (human neutrophils) | inhibition of complement activity in the hemolytic assay of rat plasma (complement activity) | binding to C1q compared with PA-I8Sar (C1q)
CC[C@H](C)[C@H](N)C(=O)N[C@@H](C)C(=O)N[C@@H](CC(C)C)C(=O)N[C@H](C(=O)N[C@@H](CC(C)C)C(=O)N[C@@H](CCC(=O)O)C(=O)N1CCC[C@H]1C(=O)N(C)CC(=O)N[C@@H](CS)C(=O)N[C@@H](CS)C(=O)N[C@@H](CCC(N)=O)C(=O)N[C@@H](CCC(=O)O)C(=O)N[C@@H](CCCNC(=N)N)C(=O)N[C@@H](C)C(=O)N[C@H](C)C(=O)O)[C@@H](C)CC [PA-0133, IALILEP(Sar)CCQERAdA] (HELM PEPTIDE1{I.A.L.I.L.E.P.[Sar].C.C.Q.E.R.A.[dA]}$$$$V2.0) | 25% | reduction in free DNA similar to that of the PA-I8Sar control; also recorded: ability to inhibit NET formation | inhibition of complement activity | 
IALILS5P(Sar)CS5QERAA (IALIL[S5]P[Sar]C[S5]QERAA; staple 6-10) [PA-0119] |  |  |  | markedly increased binding to C1q

Reference: US20230272012A1, “PEPTIDES AND METHODS OF USE” (REALTA LIFE SCIENCES, INC., priority 2020, published 2023)
